Molecular target: human Factor XIIa (Homo sapiens (Human), UniProt P00748)
Test: Factor XIIa Assay
Assay type: biochemical
Conditions: purified human Factor XIIa 500 pM; substrate n-Acetyl-Lys-Pro-Arg-AFC 100 μM; pH 7.4; read-out: FXIIa IC50
Protocol: The effectiveness of a compound of the present invention as an inhibitor of Coagulation Factor XIIa can be determined using a relevant purified serine protease, and an appropriate synthetic substrate. The rate of hydrolysis of the chromogenic or fluorogenic substrate by the relevant serine protease was measured both in the absence and presence of compounds of the present invention. Assays were conducted at room temperature or at 37° C. […] A decrease in the rate of fluorescence change in the presence of inhibitor is indicative of enzyme inhibition. Such methods are known to one skilled in the art.
Factor XIIa activity determinations were made in 50 mM HEPES buffer containing 150 mM NaCl, 5 mM CaCl2, and 0.1% PEG 8000 (polyethylene glycol; JT Baker or Fisher Scientific) at pH 7.4. Determinations were made using purified human Factor XIIa at a final concentration of 500 pM (Sekisui Diagnostics) and the synthetic substrate, n-Acetyl-Lys-Pro-Arg-AFC, TFA salt (Sigma #C6608) at a concentration of 100 μM.
Times required to achieve equilibration between enzyme and inhibitor were determined in control experiments. Initial velocities of product formation in the absence (Vo) or presence of inhibitor (Vi) were measured. IC50 was determined as the concentration of I yielding Vi=Vo/2.

Chain of human Factor XIIa (P00748 373-615): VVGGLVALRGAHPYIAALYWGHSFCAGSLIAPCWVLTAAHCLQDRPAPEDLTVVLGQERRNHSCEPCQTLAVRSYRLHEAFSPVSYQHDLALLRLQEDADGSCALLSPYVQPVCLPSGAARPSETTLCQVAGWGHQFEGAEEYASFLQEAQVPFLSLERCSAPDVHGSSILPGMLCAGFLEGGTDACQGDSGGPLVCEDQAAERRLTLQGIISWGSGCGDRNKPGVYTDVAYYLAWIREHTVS

Question: Which IC50 does the source give for `CC(C)N[C@H](CCCCN1CCCCC1)C(=O)N1CCN(C2=N[C@@H](C)[C@H](c3ccccc3)O2)C[C@H]1C(=O)NCc1cccc(Cl)c1` [Example 175, (2S)-N-(3-chlorobenzyl)-1-[N-(1-methylethyl)-6-piperidin-1-yl-D-norleucyl]-4-[(4S,5S)-4-methyl-5-phenyl-4,5-dihydro-1,3-oxazol-2-yl]piperazine-2-carboxamide] here?
Answer: 6.6 nM

Question: Which IC50 does the source give for `CC(C)N[C@H](CCCCN1CCCCC1)C(=O)N1CCN(C2=N[C@@H](C)[C@H](c3ccccc3)O2)C[C@H]1C(=O)NCc1ccc2[nH]cc(Cl)c2c1` [Example 171, (2S)-N-[(3-chloro-1H-indol-5-yl)methyl]-1-[N-(1-methylethyl)-6-piperidin-1-yl-D-norleucyl]-4-[(4S,5S)-4-methyl-5-phenyl-4,5-dihydro-1,3-oxazol-2-yl]piperazine-2-carboxamide] here?
Answer: 0.5 nM

Question: How did the IC50 turn out when `Cc1ccc(OC(=O)N2CCN(C(=O)[C@@H](CCCCNC(C)C)NC(C)C)[C@H](C(=O)NCc3cccs3)C2)c(Cl)c1C` [Example 103, 2-chloro-3,4-dimethylphenyl (3S)-4-[N^2,N^6-bis(1-methylethyl)-D-lysyl]-3-[(thiophen-2-ylmethyl)carbamoyl]piperazine-1-carboxylate] was run?
Answer: 1.4 nM

Question: How did the IC50 turn out when `CS(=O)(=O)NCCCC[C@@H](NC1CCCCC1)C(=O)N1CCN(C(=O)Oc2ccc3ccccc3c2Cl)C[C@H]1C(=O)NCc1cccs1` [Example 70, 1-chloronaphthalen-2-yl (3S)-4-[N^2-cyclohexyl-N^6-(methylsulfonyl)-D-lysyl]-3-[(thiophen-2-ylmethyl)carbamoyl]piperazine-1-carboxylate] was run?
Answer: 20 nM

Question: How did the IC50 turn out when `CC(C)S(=O)(=O)N1CCC([C@@H](NC2CCCCC2)C(=O)N2CCN(C(=O)Oc3ccccc3Cl)C[C@H]2C(=O)NCc2cccs2)CC1` [Example 63, 2-chlorophenyl (3S)-4-[(2R)-2-(cyclohexylamino)-2-{1-[(1-methylethyl)sulfonyl]piperidin-4-yl}acetyl]-3-[(thiophen-2-ylmethyl)carbamoyl]piperazine-1-carboxylate] was run?
Answer: 2.6 nM

Question: Which IC50 does the source give for `Cc1ccc(OC(=O)N2CCN(C(=O)[C@@H](CCCCN(C)C)N(C)C3CCCCC3)[C@H](C(=O)NCc3cccs3)C2)c(Cl)c1C` [Example 101, 2-chloro-3,4-dimethylphenyl (3S)-4-(N^2-cyclohexyl-N^2,N^6,N^6-trimethyl-D-lysyl)-3-[(thiophen-2-ylmethyl)carbamoyl]piperazine-1-carboxylate] here?
Answer: 0.1 nM

Question: For `C[C@@H]1N=C(N2CCN(C(=O)[C@@H](CCCCNS(C)(=O)=O)NC3CCCCC3)[C@H](C(=O)NCc3cccs3)C2)O[C@H]1c1ccccc1C#N` [Example 127, (2S)-4-[(4S,5S)-5-(2-cyanophenyl)-4-methyl-4,5-dihydro-1,3-oxazol-2-yl]-1-[N^2-cyclohexyl-N^6-(methylsulfonyl)-D-lysyl]-N-(thiophen-2-ylmethyl)piperazine-2-carboxamide], which IC50 is on record?
Answer: 18.7 nM

Question: Which IC50 does the source give for `COc1cc(CNC(=O)[C@@H]2CN(C(=O)Oc3cccc(CN)c3)CCN2C(=O)[C@@H](CCCCNS(C)(=O)=O)NC2CCC3(CC2)CCN(Cc2ccccc2)C3)ccc1CN` (stereo partly drawn) [Example 76, 3-(aminomethyl)phenyl (3S)-3-{[4-(aminomethyl)-3-methoxybenzyl]carbamoyl}-4-[N^2-(2-benzyl-2-azaspiro[4.5]dec-8-yl)-N^6= (methylsulfonyl)-D-lysyl]piperazine-1-carboxylate] here?
Answer: 4.1 nM

Question: Which IC50 does the source give for `CS(=O)(=O)NCCCC[C@@H](NC1CCC2(CC1)CCN(Cc1ccccc1)C2)C(=O)N1CCN(C(=O)Oc2cccc(CN)c2Cl)C[C@H]1C(=O)NCc1cccs1` (stereo partly drawn) [Example 82, 3-(aminomethyl)-2-chlorophenyl (3S)-4-[N^2-(2-benzyl-2-azaspiro[4.5]dec-8-yl)-N^6-(methylsulfonyl)-D-lysyl]-3-[(thiophen-2-ylmethyl)carbamoyl]piperazine-1-carboxylate] here?
Answer: 2.1 nM

Question: For `COc1cc(CNC(=O)[C@@H]2CN(C(=O)Oc3ccc4ccccc4c3Cl)CCN2C(=O)[C@@H](CCCCN(C)C)N(C)C2CCC3(CC2)CCN(Cc2ccccc2)C3)ccc1CN` (stereo partly drawn) [Example 87, 1-chloronaphthalen-2-yl (3S)-3-{[4-(aminomethyl)-3-methoxybenzyl]carbamoyl}-4-[N^2-(2-benzyl-2-azaspiro[4.5]dec-8-yl)-N^2,N^6,N^6-trimethyl-D-lysyl]piperazine-1-carboxylate], which IC50 is on record?
Answer: 1 nM

Question: With `CS(=O)(=O)NCCCC[C@@H](NC1CCCCC1)C(=O)N1CCN(C2=NCC3(CCCCC3)O2)C[C@H]1C(=O)NCc1cccs1` [Example 126, (2S)-1-[N^2-cyclohexyl-N^6-(methylsulfonyl)-D-lysyl]-4-(1-oxa-3-azaspiro[4.5]dec-2-en-2-yl)-N-(thiophen-2-ylmethyl)piperazine-2-carboxamide] as the compound, how does the IC50 read?
Answer: 21.1 nM

Question: `Cc1ccc(OC(=O)N2CCN(C(=O)[C@H](N)CCCCN3CCCCC3)[C@H](C(=O)NCc3cccs3)C2)c(Cl)c1C` [Example 111, 2-chloro-3,4-dimethylphenyl (3S)-4-(6-piperidin-1-yl-D-norleucyl)-3-[(thiophen-2-ylmethyl)carbamoyl]piperazine-1-carboxylate] was tested. Which IC50 did it give?
Answer: 5 nM

Question: `NCc1ccc(CNC(=O)[C@@H]2CN(C(=O)Oc3ccccc3Cl)CCN2C(=O)[C@@H](CC2CCCCC2)NC2CCCCC2)cc1` [Example 5, 2-chlorophenyl (3S)-3-{[4-(aminomethyl)benzyl]carbamoyl}-4-(N,3-dicyclohexyl-D-alanyl)piperazine-1-carboxylate] was tested. Which IC50 did it give?
Answer: 5.9 nM

Question: For `CN(C)CCCC[C@@H](NC1CCC2(CC1)CCN(Cc1ccccc1)C2)C(=O)N1CCN(C(=O)Oc2ccccc2Cl)C[C@H]1C(=O)NCc1cccs1` (stereo partly drawn) [Example 78, 2-chlorophenyl (3S)-4-[N^2-(2-benzyl-2-azaspiro[4.5]dec-8-yl)-N^6,N^6-dimethyl-D-lysyl]-3-[(thiophen-2-ylmethyl)carbamoyl]piperazine-1-carboxylate], which IC50 is on record?
Answer: 0.9 nM

Question: `O=C(NCc1cccs1)[C@@H]1CN(C(=O)Oc2ccccc2Cl)CCN1C(=O)[C@@H](CCCCN1CCOCC1)NC1CCC2(CC1)CCN(Cc1ccccc1)C2` (stereo partly drawn) [Example 95, 2-chlorophenyl (3S)-4-[N-(2-benzyl-2-azaspiro[4.5]dec-8-yl)-6-morpholin-4-yl-D-norleucyl]-3-[(thiophen-2-ylmethyl)carbamoyl]piperazine-1-carboxylate] was tested. Which IC50 did it give?
Answer: 1.8 nM

Question: How did the IC50 turn out when `CC(C)(C)C(=O)N1CCC([C@@H](NC2CCCCC2)C(=O)N2CCN(C(=O)Oc3ccccc3Cl)C[C@H]2C(=O)NCc2cccs2)CC1` [Example 69, 2-chlorophenyl (3S)-4-{(2R)-2-(cyclohexylamino)-2-[1-(2,2-dimethylpropanoyl)piperidin-4-yl]acetyl}-3-[(thiophen-2-ylmethyl)carbamoyl]piperazine-1-carboxylate] was run?
Answer: 8.4 nM

Question: For `C[C@@H]1N=C(N2CCN(C(=O)[C@@H](CCCCNS(C)(=O)=O)NC3CCCCC3)[C@H](C(=O)NCc3cccs3)C2)O[C@H]1c1ccccc1` [Example 123, (2S)-1-[N^2-cyclohexyl-N^6-(methylsulfonyl)-D-lysyl]-4-[(4S,5S)-4-methyl-5-phenyl-4,5-dihydro-1,3-oxazol-2-yl]-N-(thiophen-2-ylmethyl)piperazine-2-carboxamide], which IC50 is on record?
Answer: 7 nM

Question: How did the IC50 turn out when `O=C(NCc1cccs1)[C@@H]1CN(C(=O)Oc2cccc3ccc(O)nc23)CCN1C(=O)[C@@H](CC1CCCCC1)NC1CCCCC1` [Example 33, 2-hydroxyquinolin-8-yl (3S)-4-(N,3-dicyclohexyl-D-alanyl)-3-[(thiophen-2-ylmethyl)carbamoyl]piperazine-1-carboxylate] was run?
Answer: 20 nM

Source: US10875851B2, “Factor XIIa inhibitors” (Merck Sharp & Dohme Corp., priority 2016, dated 2020)
